Experiment [1] relates to hematopoietic progenitor cells (HPCs). Nature of the experiment: Circulating CFU-C assay on PB MNCs (mobilized HPCs). Format: in vivo, mouse. The protocol: (§1) To study the role of the plasminogen proteinase system with its plasminogen activators tPA and uPA, and active plasmin in stem/progenitor cell mobilization, mice lacking plasminogen (Plg^−/−), tPA (tPA^−/−), uPA (uPA^−/−) and both activators (tPA^−/−uPA^−/−) were used.^(17, 18) Age- and sex-matched mice were kept in IVC cages. Mobilization was induced either via a single sublethal injection i.v. of the myeloablative agent 5-fluorouracil (5-FU, 200-250 mg/kg), or via administration s.c. of recombinant human G-CSF (Filgrastim, Amgen, 200 μg/kg/d) for five consecutive days.^(12) Peripheral blood (PB) samples were obtained by retro-orbital bleeding under light anesthesia. Full blood counts were determined on the Abbott Cell Dyn 1300 hemocytometer. The number of mobilized hematopoietic progenitor cells (HPCs) in the circulation was determined via methylcellulose-based CFU-C assays (MethoCult, Stem Cell Technologies), per 10^5 peripheral blood mononuclear cells (PB MNCs).^(12) The number of mobilized hematopoietic stem cells (HSCs) in the circulation was quantified via splenic colony-forming assays (CFU-S), and evaluated for long-term engraftment via transplantation into lethally irradiated syngeneic wild-type recipients (9.5 Gy total body irradiation). […]
Wild-type mice and mice lacking Plg, both tPA and uPA, tPA, uPA, uPAR, PAI-1, α2AP, MMP-2 (kind gift from S. Itohara), MMP-3 (kind gift from J. Mudgett), MMP-9, MMP-12 (kind gift from S. Shapiro), and TIMP-1 (obtained by courtesy of P. Soloway) were used, and housed in barrier cages (individually ventilated) (Heymans et al. (1999), Nat. Med. 5:1135-42). […] Peripheral blood was repetitively sampled by retro-orbital puncture under light anesthesia, and full blood counts (EDTA buffered) were determined on a hemocytometer (Abbott Cell Dyn 1300). Peripheral blood smears were stained using Giemsa-May-Grunwald and at least 200 cells were analyzed. […]

Another experiment has as its system circulating WBCs. The experiment in a line: Circulating WBC counts (full blood counts) during mobilization. Format: in vivo, mouse. The settings on record: WT mice. The method, then:
as §1

Experiment [2] concerns hematopoietic stem cells (HSCs). The experiment in a line: Splenic colony-forming assay CFU-S (mobilized HSCs). Format: in vivo, mouse. The settings on record: WT mice. The protocol:
as §1

A further experiment concerns BM MNCs (HPCs). The experiment in a line: Chemotaxis transwell assay, migrated HPCs scored as CFU-Cs. The settings on record: factor in bottom well, overnight incubation; GM-CSF 100 ng/ml. Format: cell-based, mouse. The protocol:
(§2) Mononuclear cells (MNCs) were prepared via Lympholiter-M (Cedarlane) and density centrifugation. For CFU-C assays, bone marrow cells (5×10^4), or PB MNCs (1×10^5 or 5×10^5) were plated in 35 mm dishes (Stem Cell Technologies) using methylcellulose supplemented with growth factors (MethoCult, Stem Cell Technologies), and colonies were blindly scored after seven and thirteen days, respectively, using an inverted microscope (Luttun et al. (2002), Nat. Med. 8:831-40). […] After five weeks of culture, cells were trypsinized, counted, plated in MethoCult, and CFU-Cs were scored after nine days. […] For CFU-S assays, lethal total body irradiation (9.0 to 9.5 Gy), and transplantation of mobilized PB MNCs (1 to 1.5×10^5) were performed in syngeneic recipients, survival was monitored or splenic colonies were blindly scored after twelve days using a dissection microscope. For bone marrow proliferation index, bone marrow cells from treated mice were plated in 96-well plates, CellTiter96 (Promega) was added, and repetitive colorimetric readings were performed at OD 490 nm. […] After overnight incubation, the migrated non-adherent cells in the bottom wells were collected, counted, plated in MethoCult and CFU-Cs were scored after twelve days.

The next experiment deals with HSCs. The experiment in a line: Transplantation of mobilized PB MNCs into lethally irradiated WT recipients, survival. The format is in vivo, mouse. Particulars: donors WT mice treated with G-CSF and agent. The protocol:
as §1

The test system of the next experiment is sKitL. Nature of the experiment: sKitL levels in BM plasma (ELISA). Particulars: WT mice, after G-CSF. Format: in vivo, mouse. The protocol:
BM extracellular fluid (BM plasma) from mice was obtained as described previously (Petit et al. (2002), Nat. Immunol. 3:687-94). BM plasma from healthy volunteers was obtained by using the first 10 ml of collection via puncture in the iliac crest under local anesthesia, and immediate anti-coagulation with EDTA. Protein extraction on BM cells was performed as described (Heymans et al. (1999), Nat. Med. 5:1135-42). Murine sKitL and SDF1α protein levels were quantified using commercial available ELISA (R&D Systems, Abingdon, UK). Murine plasminogen, and murine and human suPAR were quantified by home-made ELISA (Heymans et al. (1999), Nat. Med. 5:1135-42; Sier et al. (2004), Thromb. Haemost. 91:403-11). Lyophilized pertussis toxin was obtained from List Laboratories. MMP-2, MMP-9, and MMP-12 activities were measured using gelatin-zymography, uPA and MMP-3 activities were measured using casein-zymography, as described previously (Heymans et al. (1999), Nat. Med. 5:1135-42). Samples from gene-deficient mice were used as negative controls. Plasmin activity of BM plasma or cells (pericellular activity) was measured using substrate colorimetry (S2403), as described previously (Heymans et al. (1999), Nat. Med. 5:1135-42). Fibrinolytic activity was measured using a modified fluorescent-based in vitro clot lysis assay (Heymans et al. (1999), Nat. Med. 5:1135-42). Western blotting was performed on non-reduced samples, which were neutralized with a cocktail of protease inhibitors (Complete Inhibitor, Roche). ECM components/fragments were detected with antibodies against mouse fibronectin and laminin (Sigma), and human D1D2D3 and D2D3 (Andolfo et al. (1999), Thromb. Haemost. 88:298-306), secondary HRP-labeled antibodies (DAKO), and ECL detection system (Amersham Pharmacia).
(In general: In an ELISA, binding on a coated surface is turned into a signal by an enzyme label.)

The test system of the next experiment is HPCs in the BM. The experiment in a line: CFU-Cs (HPCs) in the BM. Format: in vivo, mouse. Particulars: WT mice, after two days of treatment. The method, then: as §2
The next experiment concerns HSCs in the BM. Nature of the experiment: HSCs in the BM, LTC-IC assay on AFT024 stromal feeder layers. Particulars: WT mice, after two days of treatment. Format: in vivo, mouse. The method, then:
as §2

Another experiment concerns BM cells. Nature of the experiment: BM proliferation index. The format is in vivo, mouse. Particulars: G-CSF-treated, N=8. The protocol:
In contrast, HSC translocation and HPC expansion in the bone marrow was completely abolished in G-CSF-treated Plg^−/− mice (FIG. 1, Panels j and k). […] Thus, plasminogen is required for stem/progenitor cell expansion during mobilization.
Mononuclear cells (MNCs) were prepared via Lympholiter-M (Cedarlane) and density centrifugation. For CFU-C assays, bone marrow cells (5×10^4), or PB MNCs (1×10^5 or 5×10^5) were plated in 35 mm dishes (Stem Cell Technologies) using methylcellulose supplemented with growth factors (MethoCult, Stem Cell Technologies), and colonies were blindly scored after seven and thirteen days, respectively, using an inverted microscope (Luttun et al. (2002), Nat. Med. 8:831-40). […] After five weeks of culture, cells were trypsinized, counted, plated in MethoCult, and CFU-Cs were scored after nine days. […] For CFU-S assays, lethal total body irradiation (9.0 to 9.5 Gy), and transplantation of mobilized PB MNCs (1 to 1.5×10^5) were performed in syngeneic recipients, survival was monitored or splenic colonies were blindly scored after twelve days using a dissection microscope. For bone marrow proliferation index, bone marrow cells from treated mice were plated in 96-well plates, CellTiter96 (Promega) was added, and repetitive colorimetric readings were performed at OD 490 nm. […]

The subject of a further experiment is tPA. The experiment in a line: In vitro clot lysis with BM plasma samples. The settings on record: N=4. The format is in vivo, mouse. An excerpt: Compared to WT or tPA^−/− mice, uPA^−/− mice had increased mortality and delayed hematopoietic recovery (FIG. 2, Panels b and c). […] Moreover, uPA deficiency reduced the number of BM HSCs (Sca1^+cKit^+) and HPCs (Sca1^+) after 5-FU. Thus, uPA is the responsible plasminogen activator, generating plasmin during 5-FU-induced stem cell mobilization. After G-CSF treatment, the levels of active tPA, but not uPA, increased in the BM plasma, when measured by casein zymography. […] To assess whether the specific up-regulation of tPA in response to G-CSF was functionally relevant, we determined whether tPA^−/− mice were capable of mobilizing stem/progenitor cells in response to G-CSF. […]
BM extracellular fluid (BM plasma) from mice was obtained as described previously (Petit et al. (2002), Nat. Immunol. 3:687-94). […] Murine sKitL and SDF1α protein levels were quantified using commercial available ELISA (R&D Systems, Abingdon, UK). Murine plasminogen, and murine and human suPAR were quantified by home-made ELISA (Heymans et al. (1999), Nat. Med. 5:1135-42; Sier et al. (2004), Thromb. Haemost. 91:403-11). […] MMP-2, MMP-9, and MMP-12 activities were measured using gelatin-zymography, uPA and MMP-3 activities were measured using casein-zymography, as described previously (Heymans et al. (1999), Nat. Med. 5:1135-42). […]

Setting [3] is: G-CSF plus drug for five days, compared to control vehicle.
[4] abbreviates: G-CSF in combination with agent for five days, compared to G-CSF alone.

Results on five molecules are retold here after patent publication US8003096B2, “Means and methods for the recruitment and identification of stem cells” (Vlaams Interuniversitair Instituut voor Biotechnologie VZW, priority 2003, dated 2011).

Take `NC[C@H]1CC[C@H](C(=O)O)CC1` [exacyl, tranexamic acid]: the “reduction of G-CSF-induced mobilization of HPCs” value in experiment [1] (WT mice, G-CSF plus drug for five days, compared to control vehicle) is given as 55%. In addition, the “reduction of G-CSF-induced mobilization of WBCs” value with circulating WBCs (setting [3]) is 37%. For the same molecule, the “reduction of G-CSF-induced mobilization of HSCs” value in experiment [2] (setting [3]) came to 49%.

In the experiment on BM MNCs (HPCs), “GM-CSF: recombinant human GM-CSF (R&D systems), positive control in chemotaxis assay” yielded an HPCs in transwell of 1363±323.

With pertussis toxin, the “mobilization of HPCs” value in experiment [1] (uPAR−/− mice, single i.v. bolus of 500 ng, after five days) is reported as “efficiently mobilized”.

As to tenecteplase, the “enhanced mobilization of HPCs” value in [1] (WT mice, G-CSF in combination with agent for five days, compared to G-CSF alone) was 65%. The “enhanced mobilization of WBCs” value in the experiment with circulating WBCs (setting [4]) worked out at 87%. The “survival of lethally irradiated WT recipient mice after transplantation of mobilized cells” value in the experiment on HSCs is listed as “significantly increased”. Further, the “enhanced mobilization of HSCs” value in experiment [2] (setting [4]) turned out to be 155%.

B1: G-CSF: recombinant human G-CSF (Filgrastim, Amgen) (protein, chains of the INN, looked up)
chain: MTPLGPASSLPQSFLLKCLEQVRKIQGDGAALQEKLCATYKLCHPEELVLLGHSLGIPWAPLSSCPSQALQLAGCLSQLHSGLFLYQGLLQALEGISPELGPTLDTLQLDVADFATTIWQQMEELGMAPALQPTQGAMPAFASAFQRRAGGVLVASHLQSFLEVSYRVLRHLAQP
In the case of B1, the “sKitL levels in the BM plasma” value in the experiment with sKitL is recorded as “not increased”. For the same molecule, in the experiment with HPCs in the BM, the “increase of the number of HPCs in the bone marrow” value was 44%. Besides, the “reduction of the number of HSCs in the bone marrow” value in the experiment with HSCs in the BM was 65%. Further, the “BM proliferation index (percent of proliferating BM cells in control mice)” value in the experiment with BM cells (Plg−/− mice) was found to be 73±8%; in the experiment with BM cells (WT mice), 167±14%. In addition, the “in vitro clot lysis, percentage of a positive standard” value in the experiment on tPA (BM plasma of G-CSF-treated WT mice) worked out at 79±2%; with tPA (BM plasma of G-CSF-treated tPA−/− mice), 58±2%.
